Assay results: US7297489B2, “Mutations in and genomic structure of HERG—a long QT syndrome gene” (University of Utah Research Foundation, priority 1998, dated 2007)
Like-named read-outs stand apart in the source and are kept apart here.

How the values were obtained:
IKr of cardiac myocytes = settings: cited from earlier work
HERG [1] = molecular target: T1, HERG (Homo sapiens, UniProt Q12809); assay: HERG current in Xenopus oocytes injected with HERG cRNA, two-microelectrode voltage clamp; settings: for effect on current magnitude or voltage-dependence of channel activation: 1 mM within 30 min of application
Experimental: (§1) The characteristics of the expressed channel were studied in oocytes 2-6 days after cRNA injection using standard two-microelectrode voltage clamp techniques. HERG current was activated in response to test potentials >−50 mV. […] Deactivation of current (tail current) was assessed after return of the membrane to the holding potential of −70 mV. […] The voltage-dependence of channel activation was assessed by plotting the relative amplitude of tail currents as a function of test potential (FIG. 1D).
(§2) Xenopus frogs were anesthetized by immersion in 0.2% tricaine for 15-30 min. Ovarian lobes were digested with 2 mg/ml Type 1A collagenase (Sigma) in Ca^2+-free ND96 solution for 1.5 hours to remove follicle cells. […] Barth's solution contained (in mM): 88 NaCl, 1 KCl, 0.4 CaCl2, 0.33 Ca(NO3)2, 1 MgSO4, 2.4 NaHCO3, 10 HEPES; pH 7.4.
(§3) Unless indicated, oocytes were bathed in ND96 solution. This solution contained (in mM): 96 NaCl, 2 KCl, 1 MgCl2, 1.8 CaCl2, 5 HEPES; pH 7.6. In some experiments, KCl was varied by equimolar substitution with NaCl. Currents were recorded at room temperature (21-23° C.) using standard two-microelectrode voltage clamp techniques. Glass microelectrodes were filled with 3 M KCl and their tips broken to obtain tip resistances of 1-3 MΩ for the voltage-recording electrode and 0.6-1 MΩ for the current-passing electrode. Oocytes were voltage-clamped with a Dagan TEV-200 amplifier. Voltage commands were generated using pClamp software (ver. 6, Axon Instruments), a 486DX2 personal computer and a TL-1 D/A interface (Axon Instruments). Current signals were digitally sampled at a rate equal to 2-4 times the low-pass cut-off frequency (−3 db) of a 4-pole Bessel filter. Unless indicated, currents were corrected for leak and capacitance using standard, on-line P/3 leak subtraction. The oocyte membrane potential was held at −70 mV between test pulses, applied at a rate of 1-3 pulses/min. Data analyses, including exponential fitting of current traces, were performed using pCLAMP. […] Data are expressed as the mean±SEM (n=number of oocytes).

IKr (mouse AT-1 cells) = molecular target: T2, IKr (mouse AT-1 cells) (Mus musculus, UniProt O35219); settings: cited from earlier work
T2 sequence (O35219 1-1162): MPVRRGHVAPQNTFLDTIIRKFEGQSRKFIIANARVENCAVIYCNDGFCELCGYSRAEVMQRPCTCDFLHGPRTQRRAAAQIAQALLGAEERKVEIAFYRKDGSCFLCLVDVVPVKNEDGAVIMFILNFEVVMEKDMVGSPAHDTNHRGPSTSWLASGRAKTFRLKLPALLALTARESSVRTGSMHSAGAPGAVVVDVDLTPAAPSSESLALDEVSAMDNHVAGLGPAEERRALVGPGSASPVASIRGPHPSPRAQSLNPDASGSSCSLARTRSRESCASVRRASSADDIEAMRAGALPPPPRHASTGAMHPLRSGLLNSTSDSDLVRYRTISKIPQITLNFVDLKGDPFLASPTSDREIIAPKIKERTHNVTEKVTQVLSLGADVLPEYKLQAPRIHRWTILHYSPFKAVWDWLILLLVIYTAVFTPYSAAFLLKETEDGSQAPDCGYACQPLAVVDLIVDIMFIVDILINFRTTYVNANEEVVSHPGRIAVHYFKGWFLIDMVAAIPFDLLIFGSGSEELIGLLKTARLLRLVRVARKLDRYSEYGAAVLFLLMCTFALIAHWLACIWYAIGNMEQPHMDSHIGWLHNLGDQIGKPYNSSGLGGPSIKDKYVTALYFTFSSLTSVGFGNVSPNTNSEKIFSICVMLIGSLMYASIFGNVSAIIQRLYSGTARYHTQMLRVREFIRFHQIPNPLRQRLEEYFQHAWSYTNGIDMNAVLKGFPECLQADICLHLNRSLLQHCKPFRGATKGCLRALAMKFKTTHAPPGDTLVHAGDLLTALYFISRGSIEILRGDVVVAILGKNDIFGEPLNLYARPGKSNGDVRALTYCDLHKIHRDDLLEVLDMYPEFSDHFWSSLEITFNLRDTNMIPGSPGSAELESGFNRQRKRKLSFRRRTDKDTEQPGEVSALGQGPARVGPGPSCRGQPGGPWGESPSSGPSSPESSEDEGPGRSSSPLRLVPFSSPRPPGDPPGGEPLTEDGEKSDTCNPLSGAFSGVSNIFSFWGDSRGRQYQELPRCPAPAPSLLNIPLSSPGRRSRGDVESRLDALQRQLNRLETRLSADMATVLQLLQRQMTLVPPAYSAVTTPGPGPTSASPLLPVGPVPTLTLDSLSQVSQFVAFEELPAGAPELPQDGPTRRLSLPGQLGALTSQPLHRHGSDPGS

HERG [2] = molecular target: T1, HERG
Experimental: as §1, §2, §3

rcKATP-1 = molecular target: T3, rcKATP-1 (Rattus norvegicus, UniProt P48548); settings: expressed in HEK293 cells; cited from earlier work
T3 sequence (P48548 1-419): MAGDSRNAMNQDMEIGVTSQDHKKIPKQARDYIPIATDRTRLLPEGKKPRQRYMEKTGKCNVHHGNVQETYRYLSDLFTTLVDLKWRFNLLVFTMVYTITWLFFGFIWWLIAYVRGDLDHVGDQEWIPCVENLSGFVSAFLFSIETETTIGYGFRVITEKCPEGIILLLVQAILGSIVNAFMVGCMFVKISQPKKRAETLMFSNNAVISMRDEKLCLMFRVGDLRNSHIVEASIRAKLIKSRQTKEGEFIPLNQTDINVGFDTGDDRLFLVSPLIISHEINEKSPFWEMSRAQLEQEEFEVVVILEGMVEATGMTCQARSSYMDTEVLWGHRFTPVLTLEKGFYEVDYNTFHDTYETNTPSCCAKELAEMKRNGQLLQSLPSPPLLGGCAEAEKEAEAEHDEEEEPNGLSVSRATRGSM

IKr (guinea pig heart) = molecular target: T4, IKr (guinea pig heart) (Cavia porcellus, UniProt O08703); settings: read-out: IC50 (blockers, methanesulfonanilides); cited from earlier work
T4 construct: host or cells: guinea pig cardiac myocytes (endogenous current)
T4 sequence (O08703 1-1294): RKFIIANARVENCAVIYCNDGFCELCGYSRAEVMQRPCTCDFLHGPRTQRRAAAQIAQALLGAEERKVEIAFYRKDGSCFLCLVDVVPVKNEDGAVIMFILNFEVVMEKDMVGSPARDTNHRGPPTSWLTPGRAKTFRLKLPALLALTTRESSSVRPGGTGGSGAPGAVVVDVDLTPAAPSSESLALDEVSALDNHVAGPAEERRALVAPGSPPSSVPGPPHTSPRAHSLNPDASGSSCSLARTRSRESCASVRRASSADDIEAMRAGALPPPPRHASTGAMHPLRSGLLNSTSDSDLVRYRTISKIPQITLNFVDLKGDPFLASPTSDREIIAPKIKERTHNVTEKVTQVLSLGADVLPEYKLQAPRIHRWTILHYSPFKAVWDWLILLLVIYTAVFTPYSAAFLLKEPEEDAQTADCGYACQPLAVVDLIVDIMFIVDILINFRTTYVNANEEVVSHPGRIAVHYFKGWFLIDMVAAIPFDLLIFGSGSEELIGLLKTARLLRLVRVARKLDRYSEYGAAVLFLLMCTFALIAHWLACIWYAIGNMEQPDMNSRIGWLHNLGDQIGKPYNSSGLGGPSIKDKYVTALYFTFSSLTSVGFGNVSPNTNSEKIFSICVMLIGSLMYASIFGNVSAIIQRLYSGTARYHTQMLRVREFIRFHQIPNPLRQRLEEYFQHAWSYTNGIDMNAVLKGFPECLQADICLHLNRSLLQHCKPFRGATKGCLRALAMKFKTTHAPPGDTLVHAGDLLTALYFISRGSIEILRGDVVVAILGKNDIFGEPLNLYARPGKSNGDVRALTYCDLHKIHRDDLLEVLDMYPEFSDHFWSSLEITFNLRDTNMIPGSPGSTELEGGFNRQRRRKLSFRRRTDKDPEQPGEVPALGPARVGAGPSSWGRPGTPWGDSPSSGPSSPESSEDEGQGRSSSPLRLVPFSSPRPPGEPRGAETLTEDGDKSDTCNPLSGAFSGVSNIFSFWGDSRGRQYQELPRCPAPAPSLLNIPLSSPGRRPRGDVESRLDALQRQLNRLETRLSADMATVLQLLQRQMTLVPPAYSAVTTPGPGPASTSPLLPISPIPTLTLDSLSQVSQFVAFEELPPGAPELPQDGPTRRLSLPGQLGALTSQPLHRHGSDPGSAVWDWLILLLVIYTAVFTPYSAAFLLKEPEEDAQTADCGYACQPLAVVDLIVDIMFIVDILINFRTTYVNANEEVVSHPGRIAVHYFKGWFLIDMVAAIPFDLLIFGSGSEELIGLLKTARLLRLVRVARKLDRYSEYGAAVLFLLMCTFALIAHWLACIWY

T1 sequence (Q12809 whole entry): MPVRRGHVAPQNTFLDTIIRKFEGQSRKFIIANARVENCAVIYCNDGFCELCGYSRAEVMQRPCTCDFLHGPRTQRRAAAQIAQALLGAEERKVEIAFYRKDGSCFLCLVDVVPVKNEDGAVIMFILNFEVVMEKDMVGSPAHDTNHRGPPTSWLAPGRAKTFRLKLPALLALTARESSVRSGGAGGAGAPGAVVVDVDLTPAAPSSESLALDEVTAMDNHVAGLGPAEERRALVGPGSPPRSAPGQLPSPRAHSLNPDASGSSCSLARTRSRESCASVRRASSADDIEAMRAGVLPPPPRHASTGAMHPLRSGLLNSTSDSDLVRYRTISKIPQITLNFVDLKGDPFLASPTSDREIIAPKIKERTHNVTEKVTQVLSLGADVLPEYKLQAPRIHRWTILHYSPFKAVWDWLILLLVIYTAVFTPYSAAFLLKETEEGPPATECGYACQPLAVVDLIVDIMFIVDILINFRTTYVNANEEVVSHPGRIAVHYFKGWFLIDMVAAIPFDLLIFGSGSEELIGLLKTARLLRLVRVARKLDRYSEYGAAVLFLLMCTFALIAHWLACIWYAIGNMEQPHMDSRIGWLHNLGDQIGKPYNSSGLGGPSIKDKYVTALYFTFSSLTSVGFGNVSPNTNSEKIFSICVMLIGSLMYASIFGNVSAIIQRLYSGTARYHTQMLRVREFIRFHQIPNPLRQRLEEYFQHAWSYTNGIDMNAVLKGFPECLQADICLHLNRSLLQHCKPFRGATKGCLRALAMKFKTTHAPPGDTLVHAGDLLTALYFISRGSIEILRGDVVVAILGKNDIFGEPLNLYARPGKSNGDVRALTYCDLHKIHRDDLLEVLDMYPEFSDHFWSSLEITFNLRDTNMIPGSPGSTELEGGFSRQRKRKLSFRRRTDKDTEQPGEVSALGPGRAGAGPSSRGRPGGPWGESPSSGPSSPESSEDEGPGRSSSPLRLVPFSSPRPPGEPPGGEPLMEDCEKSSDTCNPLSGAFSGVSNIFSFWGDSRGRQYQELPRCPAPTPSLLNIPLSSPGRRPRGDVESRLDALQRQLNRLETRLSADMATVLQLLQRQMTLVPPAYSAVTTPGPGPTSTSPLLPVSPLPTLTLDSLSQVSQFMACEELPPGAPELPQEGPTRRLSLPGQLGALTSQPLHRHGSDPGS

Question: Which “block of IKr” value (IKr of cardiac myocytes; 2 mM cobalt) does the source give for [Co+2] [Co^2+, cobalt] here?
Answer: blocked

Question: And the “block of HERG current” value (HERG [1]; 2 mM Co^2+, n=2)?
Answer: 52%

Question: What does the source list for [La+3] [La^3+, lanthanum]?
Answer: Blockers La^3+, Co^2+ (IKr (mouse AT-1 cells)): +; block of IKr (IKr of cardiac myocytes; 10-100 μM lanthanum): blocked; Blockers La^3+, Co^2+ (HERG [2]): +; half-point of activation (isochronal activation curve) (HERG [2]): +23 mV

Question: For Nc1nc2c(nc(Br)n2[C@@H]2O[C@@H]3COP(=O)(O)O[C@H]3[C@H]2O)c(=O)[nH]1 [8-Br-cGMP], which “effect on current magnitude or voltage-dependence of channel activation” value (HERG [1]) is on record?
Answer: Neither compound had a significant effect

Question: With COc1ccc(Cl)cc1C(=O)NCCc1ccc(S(=O)(=O)NC(=O)NC2CCCCC2)cc1 [glibenclamide] as the molecule, how does the “block of the channel” value (rcKATP-1) read?
Answer: not blocked

Question: With CS(=O)(=O)Nc1ccc2c(c1)[C@H](O)CC1(CCN([C@@H]3CCc4cc(C#N)ccc4C3)CC1)O2 [MK-499] as the molecule, how does the IC50 (IKr (guinea pig heart)) read?
Answer: 44 nM

Question: What does the source list for Nc1ncnc2c1nc(Br)n2[C@@H]1O[C@@H]2COP(=O)(O)O[C@H]2[C@H]1O [8-Br-cAMP]?
Answer: activation of HERG (HERG [1]): not activated; effect on current magnitude or voltage-dependence of channel activation (HERG [1]): Neither compound had a significant effect

Question: Which “increase of IKr” value (IKr of cardiac myocytes; cardiac myocytes) does the source give for CC(C)NCC(O)c1ccc(O)c(O)c1 (stereo not shown) [isoproterenol] here?
Answer: does not increase

Question: For [K+] [K^+], which “increase of HERG current” value (HERG [1]; [K^+]e 5 mM versus 2 mM) is on record?
Answer: 40%
